Measurements as given in PubChem BioAssay (NCI).
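Results reflect a 48-hour exposure of cells in 96-well plates to compound at five concentrations. TGI: total growth inhibition.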

How the values were obtained:
Assay in all cases: NCI anticancer screen, dose series, 48 h
A498 renal = test system: A498 renal
ACHN renal = test system: ACHN renal
CCRF-CEM leukemia = test system: CCRF-CEM leukemia
DU-145 prostate = test system: DU-145 prostate
EKVX NSCLC = test system: EKVX NSCLC
HCC-2998 colon = test system: HCC-2998 colon
HCT-116 colon = test system: HCT-116 colon
HCT-15 colon = test system: HCT-15 colon
HL-60(TB) leukemia = test system: HL-60(TB) leukemia
HOP-62 NSCLC = test system: HOP-62 NSCLC
HT29 colon = test system: HT29 colon
K-562 leukemia = test system: K-562 leukemia
M14 melanoma = test system: M14 melanoma
MALME-3M melanoma = test system: MALME-3M melanoma
MCF7 breast = test system: MCF7 breast
MDA-MB-231 breast = test system: MDA-MB-231 breast
MDA-MB-435 = test system: MDA-MB-435
MDA-N = test system: MDA-N
MOLT-4 leukemia = test system: MOLT-4 leukemia
NCI-H522 lung = test system: NCI-H522 lung
RPMI-8226 leukemia = test system: RPMI-8226 leukemia
SF-268 CNS = test system: SF-268 CNS
SF-539 CNS = test system: SF-539 CNS
SK-MEL-28 melanoma = test system: SK-MEL-28 melanoma
SK-OV-3 ovarian = test system: SK-OV-3 ovarian
SN12C renal = test system: SN12C renal
SNB-75 CNS = test system: SNB-75 CNS
SR leukemia = test system: SR leukemia
T-47D breast = test system: T-47D breast
U251 CNS = test system: U251 CNS
UACC-62 melanoma = test system: UACC-62 melanoma
UO-31 renal = test system: UO-31 renal
786-0 renal = test system: 786-0 renal
A549 NSCLC = test system: A549 NSCLC
BT-549 breast = test system: BT-549 breast
CAKI-1 renal = test system: CAKI-1 renal
COLO 205 colon = test system: COLO 205 colon
HOP-92 NSCLC = test system: HOP-92 NSCLC
HS 578T breast = test system: HS 578T breast
IGROV1 ovarian = test system: IGROV1 ovarian
LOX IMVI melanoma = test system: LOX IMVI melanoma
NCI-H226 lung = test system: NCI-H226 lung
NCI-H23 lung = test system: NCI-H23 lung
NCI-H460 lung = test system: NCI-H460 lung
NCI/ADR-RES ovarian = test system: NCI/ADR-RES ovarian
OVCAR-3 ovarian = test system: OVCAR-3 ovarian
OVCAR-5 ovarian = test system: OVCAR-5 ovarian
OVCAR-8 ovarian = test system: OVCAR-8 ovarian
PC-3 prostate = test system: PC-3 prostate
RXF 393 renal = test system: RXF 393 renal
SF-295 CNS = test system: SF-295 CNS
SK-MEL-2 melanoma = test system: SK-MEL-2 melanoma
SK-MEL-5 melanoma = test system: SK-MEL-5 melanoma
SNB-19 CNS = test system: SNB-19 CNS
SW-620 colon = test system: SW-620 colon
TK-10 renal = test system: TK-10 renal
UACC-257 melanoma = test system: UACC-257 melanoma

SMILES: CCOC(=O)C(NC(=O)CC)(C(F)(F)F)P(=O)(OCC)OCC (centres undefined)
- TGI (A498 renal): > 100 µM
- TGI (ACHN renal): > 100 µM
- TGI (CCRF-CEM leukemia): > 100 µM
- TGI (DU-145 prostate): > 100 µM
- TGI (EKVX NSCLC): > 100 µM
- TGI (HCC-2998 colon): > 100 µM
- TGI (HCT-116 colon): > 100 µM
- TGI (HCT-15 colon): > 100 µM
- TGI (HL-60(TB) leukemia): > 100 µM
- TGI (HOP-62 NSCLC): > 100 µM
- TGI (HT29 colon): > 100 µM
- TGI (K-562 leukemia): > 100 µM
- TGI (M14 melanoma): > 100 µM
- TGI (MALME-3M melanoma): > 100 µM
- TGI (MCF7 breast): > 100 µM
- TGI (MDA-MB-231 breast): > 100 µM
- TGI (MDA-MB-435): > 100 µM
- TGI (MDA-N): > 100 µM
- TGI (MOLT-4 leukemia): > 100 µM
- TGI (NCI-H522 lung): > 100 µM
- TGI (RPMI-8226 leukemia): > 100 µM
- TGI (SF-268 CNS): > 100 µM
- TGI (SF-539 CNS): > 100 µM
- TGI (SK-MEL-28 melanoma): > 100 µM
- TGI (SK-OV-3 ovarian): > 100 µM
- TGI (SN12C renal): > 100 µM
- TGI (SNB-75 CNS): > 100 µM
- TGI (SR leukemia): > 100 µM
- TGI (T-47D breast): > 100 µM
- TGI (U251 CNS): > 100 µM
- TGI (UACC-62 melanoma): > 100 µM
- TGI (UO-31 renal): > 100 µM

SMILES: Cc1cccc(N2C(=O)C3c4[nH]c5ccccc5c4C4CCC(C(C)(C)C)CC4C3C2=O)c1C (centres undefined)
- TGI (786-0 renal): > 100 µM
- TGI (A498 renal): > 100 µM
- TGI (A549 NSCLC): > 100 µM
- TGI (ACHN renal): > 100 µM
- TGI (BT-549 breast): > 100 µM
- TGI (CAKI-1 renal): > 100 µM
- TGI (CCRF-CEM leukemia): > 100 µM
- TGI (COLO 205 colon): > 100 µM
- TGI (DU-145 prostate): > 100 µM
- TGI (EKVX NSCLC): > 100 µM
- TGI (HCC-2998 colon): > 100 µM
- TGI (HCT-116 colon): > 100 µM
- TGI (HCT-15 colon): > 100 µM
- TGI (HL-60(TB) leukemia): 60.4 µM
- TGI (HOP-62 NSCLC): > 100 µM
- TGI (HOP-92 NSCLC): > 100 µM
- TGI (HS 578T breast): > 100 µM
- TGI (HT29 colon): > 100 µM
- TGI (IGROV1 ovarian): > 100 µM
- TGI (K-562 leukemia): > 100 µM
- TGI (LOX IMVI melanoma): > 100 µM
- TGI (M14 melanoma): > 100 µM
- TGI (MALME-3M melanoma): > 100 µM
- TGI (MCF7 breast): > 100 µM
- TGI (MDA-MB-231 breast): 42.3 µM
- TGI (MDA-MB-435): > 100 µM
- TGI (MDA-N): > 100 µM
- TGI (MOLT-4 leukemia): > 100 µM
- TGI (NCI-H226 lung): > 100 µM
- TGI (NCI-H23 lung): > 100 µM
- TGI (NCI-H460 lung): > 100 µM
- TGI (NCI/ADR-RES ovarian): > 100 µM
- TGI (OVCAR-3 ovarian): > 100 µM
- TGI (OVCAR-5 ovarian): > 100 µM
- TGI (OVCAR-8 ovarian): > 100 µM
- TGI (PC-3 prostate): > 100 µM
- TGI (RPMI-8226 leukemia): > 100 µM
- TGI (RXF 393 renal): > 100 µM
- TGI (SF-295 CNS): > 100 µM
- TGI (SF-539 CNS): > 100 µM
- TGI (SK-MEL-2 melanoma): > 100 µM
- TGI (SK-MEL-5 melanoma): > 100 µM
- TGI (SK-OV-3 ovarian): > 100 µM
- TGI (SN12C renal): > 100 µM
- TGI (SNB-19 CNS): > 100 µM
- TGI (SR leukemia): > 100 µM
- TGI (SW-620 colon): > 100 µM
- TGI (TK-10 renal): > 100 µM
- TGI (U251 CNS): 83.4 µM
- TGI (UACC-257 melanoma): > 100 µM
- TGI (UACC-62 melanoma): > 100 µM
- TGI (UO-31 renal): > 100 µM
